Data from PMC10877565, “Iso-ADP-Ribose Fluorescence Polarization Probe for the Screening of RNF146 WWE Domain Inhibitors” (ACS Chemical Biology, 2024).
“And” between values parts separate entries of the source, which are not always exact repeats. Equal values may be shown once. “Also recorded” adds a separate entry of the source. Read-outs that look alike come from different tables or passages of the source. One block for each compound: values may come before it.

Columns and labels:
[1] = target: T1, RNF146 WWE domain (Homo sapiens, UniProt Q9NTX7); experiment: Competitive FP-based binding assay with TAMRA-isoADPr tracer; details: for IC50: TAMRA-isoADPr 20 nM, RNF146 WWE 100 nM; for Hillslope: IC50 curve of fragment hits
T1 construct: PARP11, PARP14, TiPARP, DTX2, and RNF146 WWE domain plasmids were either cloned or purchased from Twist Biosciences; His tag (N); made in house; host or cells: E. coli BL21(DE3), pET28a
T1 sequence (Q9NTX7 92-168 limits assumed): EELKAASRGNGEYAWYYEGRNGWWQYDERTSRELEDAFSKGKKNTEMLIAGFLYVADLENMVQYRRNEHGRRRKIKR

[2] = tested on: WWE domains; experiment: FP titration of different WWE domains using TAMRA-ADPr; format: binding; details: Figure S3, n = 3
Source text: (§1) We then screened the tracer TAMRA-isoADPr against WWE domains of some other proteins, including PARP11, PARP14, HUWE1, TiPARP, and DTX2, under the same conditions. […] To check the folding of purified WWE domains, we obtained the circular dichroism (CD) spectra for the purified WWE domains, and the results indicated proper folding of all purified proteins (Figure S5). […] The isoADPr binding pocket of RNF146 WWE is special in that the entire pocket is largely positively charged with multiple arginine and lysine residues to interact with both phosphate groups of isoADPr, while this feature is missing in other WWE domains containing proteins (Figure S2). Indeed, RNF146 WWE is the only reported high-affinity binder of the isoADPr monomer, so it is likely that other WWE domains tested are simply too weak binders to show any significant binding at the concentrations tested.
Figure S3. FP titration of different WWE domains using TA M R A -ADPr (n= 3). Data of SA RS-C oV 2 N sp3
Macro (black) is shown here as comparison.
F i g u re S 4. Attempted IC50 measurement and chemical structure of Z1203162033. […]

[3] = target: T1, RNF146 WWE domain; experiment: FP protein titration of tracer with RNF146 WWE; format: binding; details: tracer 20 nM, Tris buffer pH 8.0
Method: Having obtained the tracer molecule TAMRA-isoADPr, we then examined its binding affinity by FP protein titration experiments, where a fixed concentration of the tracer (20 nM) was titrated with increasing concentrations of RNF146 WWE protein in Tris buffer (pH 8.0), yielding a binding curve with an increasing mP shift (ΔmP) until a plateau was observed.
(§2) The purified WWE domain proteins were 3-fold serially diluted from 20 μM to ∼5 nM in the assay buffer (25 mM Tris pH 8.0, 150 mM NaCl, and 0.01% Tween-20). In the assay, 50 μL of the protein solution at each concentration was transferred to a 96-well black plate (Corning, #3915), followed by the addition of 50 μL of TAMRA-isoADPr (40 nM, 2X) in the assay buffer to reach a final volume of 100 μL. The plate was allowed to stand at RT for 30 min and then scanned on Cytation5 equipped with an FP filter cube (Agilent, part number: 8040562, Ex: 530/25, Em: 590/35). mP values were calculated using the equation below [drawing 1] where F// and F⊥ are the parallel and perpendicular fluorescence intensities, respectively, and G is the grating factor of the instrument, which was calibrated so that 20 nM 5-TAMRA has an mP shift of 50. The obtained mP data were fitted in the one-site-specific binding model implemented in GraphPad Prism 9.4.1 (GraphPad Software, Inc.) to give the Kd value using the equation below [drawing 2]

[4] = target: T2, PARP11 WWE (Homo sapiens, UniProt Q9NR21); experiment: FP titration of WWE domains with TAMRA-isoADPr; format: binding; details: same conditions as RNF146 WWE titration
T2 construct: PARP11, PARP14, TiPARP, DTX2, and RNF146 WWE domain plasmids were either cloned or purchased from Twist Biosciences; made in house; host or cells: E. coli BL21(DE3), pET28a
T2 sequence (Q9NR21 22-106 limits assumed): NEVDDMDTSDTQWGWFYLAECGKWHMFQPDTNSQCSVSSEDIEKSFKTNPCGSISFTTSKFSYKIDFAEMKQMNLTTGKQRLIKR
Source text: as §1, §2

[5] = target: T3, DTX2 WWE (Homo sapiens, UniProt Q86UW9); experiment: FP titration of WWE domains with TAMRA-isoADPr; format: binding; details: same conditions as RNF146 WWE titration
T3 sequence (Q86UW9 98-174 limits assumed): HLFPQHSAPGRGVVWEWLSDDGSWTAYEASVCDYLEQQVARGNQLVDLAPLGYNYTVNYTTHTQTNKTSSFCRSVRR
Source text: as §1, §2

[6] = target: T4, HUWE1 WWE (Homo sapiens, UniProt Q7Z6Z7); experiment: FP titration of WWE domains with TAMRA-isoADPr; format: binding; details: same conditions as RNF146 WWE titration
T4 construct: The HUWE1 WWE domain was purified as previously reported; made in house
T4 sequence (Q7Z6Z7 1603-1680 limits assumed): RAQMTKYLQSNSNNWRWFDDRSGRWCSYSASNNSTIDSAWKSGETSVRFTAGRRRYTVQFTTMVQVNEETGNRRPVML
Source text: as §1, §2

[7] = target: T5, PARP14 WWE (Homo sapiens, UniProt Q460N5); experiment: FP titration of WWE domains with TAMRA-isoADPr; format: binding; details: same conditions as RNF146 WWE titration
T5 construct: PARP11, PARP14, TiPARP, DTX2, and RNF146 WWE domain plasmids were either cloned or purchased from Twist Biosciences; made in house; host or cells: E. coli BL21(DE3), pET28a
T5 sequence (Q460N5 1523-1601 limits assumed): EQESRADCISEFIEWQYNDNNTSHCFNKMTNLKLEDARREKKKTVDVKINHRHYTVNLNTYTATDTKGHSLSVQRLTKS
Source text: as §1, §2

[8] = target: T6, TiPARP WWE (Homo sapiens, UniProt Q7Z3E1); experiment: FP titration of WWE domains with TAMRA-isoADPr; format: binding; details: same conditions as RNF146 WWE titration
T6 construct: PARP11, PARP14, TiPARP, DTX2, and RNF146 WWE domain plasmids were either cloned or purchased from Twist Biosciences; made in house; host or cells: E. coli BL21(DE3), pET28a
T6 sequence (Q7Z3E1 332-410 limits assumed): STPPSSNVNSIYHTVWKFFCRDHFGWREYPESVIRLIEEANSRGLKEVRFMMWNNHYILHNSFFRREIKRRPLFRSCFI
Source text: as §1, §2

[9] = target: T7, RNF146 WWE (Homo sapiens, UniProt Q9NTX7); experiment: Fragment library screening by competitive FP, 384-well; format: binding; details: 100 μM, 1% DMSO
T7 construct: PARP11, PARP14, TiPARP, DTX2, and RNF146 WWE domain plasmids were either cloned or purchased from Twist Biosciences; His tag (N); made in house; host or cells: E. coli BL21(DE3), pET28a
T7 sequence (Q9NTX7 92-168 limits assumed): T1 sequence (Q9NTX7 92-168 limits assumed)
Method: To test the performance of the established FP assay in high-throughput formats, we conducted a pilot screen where isoADPr was used as the positive control, and Enamine Essential Fragments Library, which contains 320 fragments, was used as a test case for potential inhibitors. The test library was screened at 100 μM in 1% DMSO under the established conditions in duplicates in two 384-well plates (Figure 4A). In each plate, four controls were used: buffer control, tracer control, negative control, and positive control. Buffer control allowed the detection of background fluorescence, while tracer and negative controls gave mP values of the free tracer and maximally bound tracer, to which inhibition rates of fragment candidates were normalized. […] From these control wells, different assay parameters could be calculated. One important FP assay parameter is the assay window (ΔmP), which is calculated as the difference between the mP value recorded for the bound tracer (i.e., negative control) and the mP value recorded for the free tracer (i.e., tracer control). […] Another parameter general to all HTS assays is the screening window coefficient (Z′ factor). A Z′ factor value between 0.5 and 1 is suitable for HTS.[26] […] Moreover, the coefficients of variation (CV) of both negative and positive control wells were low.
Using epMotion 96 (Eppendorf), 49.5 μL of the assay solution (100 nM RNF146 WWE and 20 nM TAMRA-isoADPr) or control solution (tracer-only, buffer-only, and positive control with additional 100 μM isoADPr) was transferred from a 96-well mother plate to a 384-well black plate (Corning, #3575). […] For each fragment and positive and negative control well, the relative percent binding of the tracer was calculated as described above. Z’ factor was calculated with the following equation [drawing 5] where σP and σN are the standard deviations of ΔmP values of positive and negative control wells, while μP and μN are the mean ΔmP values of positive and negative control wells.

[10] = target: T7, RNF146 WWE; experiment: Biolayer interferometry, immobilized biotin-isoADPr with RNF146 WWE; format: binding; details: BLI
Source text: To further validate that our probe indeed can bind to RNF146 WWE, we sought to measure the Kd value of TAMRA-isoADPr toward RNF146 WWE through biolayer interferometry (BLI). A typical BLI experiment relies on an antibody-coated biosensor tip that can capture the protein of interest, and it was then dipped into solutions containing potential interacting molecules (here, referred to as the analyte).[20] The interaction between the protein and the analyte can be measured in real time through monitoring the reflected light pattern upon complex formation on the biosensor surface, giving useful kinetics information, including kon, koff, and Kd. […] Therefore, we synthesized a biotin-labeled isoADPr compound (11, Figure 3A) from 3′-azido-isoADPr, which is structurally analogous to TAMRA-isoADPr. Biotin-isoADPr was immobilized onto SA biosensors that were then dipped into RNF146 WWE solutions of varying concentrations in multiple association–dissociation cycles (Figure S1B). […] The BLI experiment further supports that our tracer design strategy works for RNF146 WWE.
The binding of biotin-isoADPr to the RNF146 WWE was monitored and measured on an Octet RH16 biolayer interferometer. Three replicate streptavidin biosensor tips (SA) were loaded with 1 μM biotin-isoADPr in the kinetics buffer (PBS with 0.02% Tween-20 and 0.1% BSA) for 300 s. After a 300 s baseline step, the loaded sensor tips were moved to sample wells containing RNF146 WWE protein at 0, 12, 49, 187, 750, 3000, 9000, and 18000 nM in the kinetics buffer sequentially in multiple cycles, with each cycle consisting a 300 s association step in the sample well and a 300 s dissociation step in the buffer well. The volume of each well was 200 μL. A reference biosensor without biotin-isoADPr loading was used to exclude the possibilities of nonspecific binding, and reference wells without RNF146 WWE protein were used for blank subtraction. Data were processed and curves were fitted with a 1:1 best-fit model in Octet BLI Analysis software.

[11] = target: T4, HUWE1 WWE; details: reported; cited from earlier work
[12] = target: T7, RNF146 WWE; details: isothermal titration calorimetry; read-out: reported Kd; cited from earlier work

Compound: [N-]=[N+]=N[C@H]1[C@@H](O[C@H]2O[C@H](COP(=O)(O)O)[C@@H](O)[C@H]2O)[C@H](n2cnc3c(N)ncnc32)O[C@@H]1COP(=O)(O)O [3′-azido-isoADPr]
- fold more potent than isoADPr ([1]; IC50 compared with isoADPr): 2 fold
- IC50 ([1]; 96-well): 0.273 µM

Compound: CN(C)c1ccc2c(c1)Oc1cc(N(C)C)ccc1C21OC(=O)c2cc(C(=O)NCCCCCCNC(=O)CCc3cn([C@H]4O[C@H](COP(=O)(O)OP(=O)(O)OC[C@H]5O[C@@H](n6cnc7c(N)ncnc76)[C@H](O)[C@@H]5O)[C@@H](O)[C@H]4O)nn3)ccc21 [TAMRA-ADPr]
- binding of TAMRA-ADPr [2]: does not bind

Compound: CN(C)c1ccc2c(c1)Oc1cc(N(C)C)ccc1C21OC(=O)c2cc(C(=O)NCCCCCCNC(=O)CCc3cn([C@H]4[C@@H](O[C@H]5O[C@H](COP(=O)(O)O)[C@@H](O)[C@H]5O)[C@H](n5cnc6c(N)ncnc65)O[C@@H]4COP(=O)(O)O)nn3)ccc21 [TAMRA-isoADPr]
- Kd [3]: 0.0452 µM
- binding of tracer [4]: no binding; also recorded: none of these WWE domains could bind the tracer
- binding of tracer [5]: no binding; also recorded: none of these WWE domains could bind the tracer
- binding of tracer [6]: no binding; also recorded: none of these WWE domains could bind the tracer
- binding of tracer [7]: no binding; also recorded: none of these WWE domains could bind the tracer
- binding of tracer [8]: no binding; also recorded: none of these WWE domains could bind the tracer

Compound: COc1cc(CC(=O)O)ccc1O [Z1203162033]
- percent binding of tracer ([9]; AVERAGE of two plates): 43.4%
- percent binding of tracer ([9]; PLATE1): 43.6%
- percent binding of tracer ([9]; PLATE2): 43.3%
- binding strength in attempted IC50 measurement ([1]; Figure S4): much weaker binder

Further lines, with some results ahead:

- Kd ([10]; SA biosensor, 1:1 fit): 0.644 µM
- kon ([10]; mean ± error, n = 3): 65700 M⁻¹ s⁻¹
- koff ([10]; mean ± error, n = 3, read-out: kdis): 0.0423 s⁻¹
Compound: Nc1ncnc2c1ncn2[C@@H]1O[C@H](COP(=O)(O)O)[C@@H](n2cc(COCCOCCOCCOCCNC(=O)CCCC[C@@H]3SC[C@@H]4NC(=O)N[C@@H]43)nn2)[C@H]1O[C@H]1O[C@H](COP(=O)(O)O)[C@@H](O)[C@H]1O [biotin-isoADPr]

- Hillslope [1]: -1.134
- IC50 ([1]; fragment hits): 86.2 µM and 86 µM
Compound: O=C(O)c1cc2occc2[nH]1 [compound 12]

- Hillslope [1]: -1.834
- IC50 ([1]; fragment hits): 39.5 µM and 40 µM
Compound: O=C(O)c1sccc1-n1cccc1 [compound 13]

- IC50 ([1]; 96-well): 0.623 µM
Compound: Nc1ncnc2c1ncn2[C@@H]1O[C@H](COP(=O)(O)O)[C@@H](O)[C@H]1O[C@H]1O[C@H](COP(=O)(O)O)[C@@H](O)[C@H]1O [isoADPr, iso-ADP-ribose]
- Kd [11]: 13 µM
- Kd [12]: 0.37 µM
